Test results reported in the NIST ThermoML archive (doi:10.1016/j.fluid.2017.09.023).

Conditions: Crystal, Transpiration method

CC(=O)Nc1ccccc1 [N-phenylethanamide]
Conditions	vapor or sublimation pressure [kPa]
316.3 K	9e-05
320.3 K	0.00015
322.3 K	0.00018
323.2 K	0.00021
325.3 K	0.00025
327 K	0.0003
328.1 K	0.00035
328.2 K	0.00033
333.3 K	0.0006
334.3 K	0.00064
337.1 K	0.00088
339.4 K	0.00114
340.3 K	0.00119
342.4 K	0.00159
345.5 K	0.00205
346.1 K	0.00214
347.2 K	0.0024
349.4 K	0.00299
351.2 K	0.00356
352.5 K	0.00422
355.5 K	0.00532
356.4 K	0.00601
357.4 K	0.00636
359.2 K	0.00759
360.2 K	0.00852
362.2 K	0.01028
364.3 K	0.01261
365.3 K	0.01406
366.7 K	0.01576
368.4 K	0.01777
369.2 K	0.01911
372.2 K	0.02411
